Like-named read-outs stand apart in the source and are kept apart here.
Experiments:
H3122 cells = experiment: CCK-8 cell proliferation detection, H3122 cells; assay type: cell-based
Description: (§1) WST-8 (chemical name: 2-(2-methoxy-4-nitrophenyl)-3-(4-nitrophenyl)-5-(2,4-disulfo benzene)-2H-tetrazolium monosodium), which is reduced to a highly water-soluble yellow formazan product (Formazan dye) by the dehydrogenase in cells under the action of the electron carrier dimethyl 1-methoxy-5-methylphenazinium sulfate (1-Methoxy PMS). The amount of the produced formazan is proportional to the number of living cells. Therefore, the survival rate of cells can be calculated indirectly by measuring the absorbance at 450 nm. The half inhibition rate of the compound on the proliferation of H3122, SET2, HEL cells can be determined by the CCK-8 method.
(§2) RPIM medium containing 10% FBS was used to culture cells (100 μL per well), and 3500 cells were inoculated into a 96-well plate, and placed in a 37° C., 5% CO2 incubator for 24 h, until 50%-70% of the cell confluence was achieved. Drugs with different concentration gradients were added respectively, and incubated for another 72 hrs. […] And finally the absorption value of each well was measured at 450 nm.
(§3) NOTE: HEL, SET-2, H3122 cells were purchased from ATCC (American type culture collection), Z′-LYTETM kinase assay platform was purchased from Invitrogen, HTRF KinEASETM-TK was purchased from Cisbio, and Cell Counting Kit-8 was purchased from Beyotime.

ALK = ALK (Homo sapiens, UniProt Q9UM73); experiment: ALK kinase IC50 test (HTRF); assay type: biochemical
Description: According to HTRF method, the peptide substrate was labeled with a biotin, which can specifically bind to XL665-labeled streptavidin. When the kinase adds a phosphate group to the polypeptide substrate in the first step, its Eu-labeled specific phosphorylation antibody can recognize and bind to it. In this way, in the second step of detection, a complex of XL665-labeled streptavidin, phosphorylated peptide substrate and Eu-labeled phosphorylation antibody can be formed. Since the distance between XL665 and Eu is short, FRET can be formed. On the other hand, Eu has a relatively long fluorescence half-life and can be applied to time-resolved fluorescence detection.
10 μL of reaction system, 4 μL test compound, 2 μL kinase, 2 μL biotin-labeled substrate and 2 μL ATP, was added into a 384-well plate, shaken for 30 s, and incubated at room temperature for 1 hour. 5 μL of Eu-labeled phosphorylation site-specific antibody and 5 μL of XL665-labeled streptavidin were added. The reaction system was shaken for 30 s, and incubated at room temperature for 1 hour. A microplate reader was used to detect the fluorescence signal. The inhibition rates of the compounds under 8 concentration gradients were determined, and the IC50 value of each compound was calculated by fitting curve with Origin 8.0. […] Each experiment was performed in triplicate.
as §3

JAK2 = JAK2 (Homo sapiens, UniProt O60674); experiment: JAK2 kinase activity test at molecular level (Z'-LYTE FRET); assay type: biochemical
Procedure: JAK2 can catalyze the transfer of a phosphate group of adenosine triphosphate (ATP) to a polypeptide substrate, and the polypeptide substrate is labeled with two fluorescent groups, coumarin and fluorescein. […] Therefore, the inhibition rates of different compounds can be calculated by measuring the ratio of enzyme-catalyzed substrate phosphorylation percentages.
10 μL reaction system, 2.5 μL test compound, 5 μL kinase/peptide substrate mixture and 2.5 μL ATP solution were added into a 384-well plate, shaken for 30 s, and incubated at room temperature for 1 hour. 5 μL of proteolytic enzyme and 15 μL of the reaction system were added and shaken for 30 s and incubated at room temperature for 1 h. 5 μL of stop reagent was added, and the reaction system with a total volume of 20 μL was shaken for 30 seconds. A microplate reader was used to detect the fluorescence signal. […] The inhibition rates of the compound at 7 concentration gradients were determined, and the IC50 value for each compound was calculated by fitting curve with Origin 8.0.
as §3

HEL (JAK2 V617F) cells = experiment: CCK-8 cell proliferation detection, HEL cells; assay type: cell-based; conditions: Homo sapiens, Table 2, CCK-8, 72 hrs
Description: as §1, §2, §3

SET 2 (JAK2 V617F) cells = experiment: CCK-8 cell proliferation detection, SET2 cells; assay type: cell-based; conditions: Homo sapiens, Table 2, CCK-8, 72 hrs
Description: as §1, §2, §3

[1] = Homo sapiens, NCI-H3122, Table 2, CCK-8, 72 hrs
[2] = Homo sapiens, NCI-H3122, 72 h, Table 2, CCK-8, 72 hrs
[3] = Table 1, read-out: JAK2 kinase activity IC50
[4] = Table 4, configurations of MXY-193
[5] = Homo sapiens, NCI-H3122, Table 4, configurations of MXY-193

Sequence of JAK2 (O60674 whole entry): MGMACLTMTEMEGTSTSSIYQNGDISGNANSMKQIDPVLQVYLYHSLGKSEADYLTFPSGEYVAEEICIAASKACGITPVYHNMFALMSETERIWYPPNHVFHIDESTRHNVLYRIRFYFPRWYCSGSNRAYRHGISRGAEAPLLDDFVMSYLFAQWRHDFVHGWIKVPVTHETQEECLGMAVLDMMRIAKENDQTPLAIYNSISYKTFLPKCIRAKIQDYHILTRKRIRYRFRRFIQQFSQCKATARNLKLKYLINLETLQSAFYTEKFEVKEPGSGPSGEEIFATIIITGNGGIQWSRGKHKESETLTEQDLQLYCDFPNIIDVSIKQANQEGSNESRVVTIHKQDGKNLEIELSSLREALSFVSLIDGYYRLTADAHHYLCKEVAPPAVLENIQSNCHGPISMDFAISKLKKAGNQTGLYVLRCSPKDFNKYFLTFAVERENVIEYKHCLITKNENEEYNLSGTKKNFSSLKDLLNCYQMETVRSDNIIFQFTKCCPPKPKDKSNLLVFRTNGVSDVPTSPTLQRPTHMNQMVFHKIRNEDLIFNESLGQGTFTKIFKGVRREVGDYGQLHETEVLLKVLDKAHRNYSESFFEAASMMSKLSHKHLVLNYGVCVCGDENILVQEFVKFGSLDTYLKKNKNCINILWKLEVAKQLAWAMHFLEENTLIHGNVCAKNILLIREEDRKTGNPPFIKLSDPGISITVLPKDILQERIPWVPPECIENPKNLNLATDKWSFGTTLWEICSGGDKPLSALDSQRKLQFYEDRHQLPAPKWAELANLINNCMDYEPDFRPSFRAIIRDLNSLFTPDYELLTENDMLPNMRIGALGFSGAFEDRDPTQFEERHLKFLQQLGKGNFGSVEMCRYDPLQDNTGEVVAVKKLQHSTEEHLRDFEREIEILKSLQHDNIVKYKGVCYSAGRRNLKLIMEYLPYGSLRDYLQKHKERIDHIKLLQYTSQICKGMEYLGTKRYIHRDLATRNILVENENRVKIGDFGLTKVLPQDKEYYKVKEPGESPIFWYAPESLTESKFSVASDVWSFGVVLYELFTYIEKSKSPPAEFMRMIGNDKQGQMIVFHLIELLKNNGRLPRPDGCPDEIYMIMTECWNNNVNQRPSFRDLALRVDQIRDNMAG
Sequence of ALK (Q9UM73 19-1620, species assumed): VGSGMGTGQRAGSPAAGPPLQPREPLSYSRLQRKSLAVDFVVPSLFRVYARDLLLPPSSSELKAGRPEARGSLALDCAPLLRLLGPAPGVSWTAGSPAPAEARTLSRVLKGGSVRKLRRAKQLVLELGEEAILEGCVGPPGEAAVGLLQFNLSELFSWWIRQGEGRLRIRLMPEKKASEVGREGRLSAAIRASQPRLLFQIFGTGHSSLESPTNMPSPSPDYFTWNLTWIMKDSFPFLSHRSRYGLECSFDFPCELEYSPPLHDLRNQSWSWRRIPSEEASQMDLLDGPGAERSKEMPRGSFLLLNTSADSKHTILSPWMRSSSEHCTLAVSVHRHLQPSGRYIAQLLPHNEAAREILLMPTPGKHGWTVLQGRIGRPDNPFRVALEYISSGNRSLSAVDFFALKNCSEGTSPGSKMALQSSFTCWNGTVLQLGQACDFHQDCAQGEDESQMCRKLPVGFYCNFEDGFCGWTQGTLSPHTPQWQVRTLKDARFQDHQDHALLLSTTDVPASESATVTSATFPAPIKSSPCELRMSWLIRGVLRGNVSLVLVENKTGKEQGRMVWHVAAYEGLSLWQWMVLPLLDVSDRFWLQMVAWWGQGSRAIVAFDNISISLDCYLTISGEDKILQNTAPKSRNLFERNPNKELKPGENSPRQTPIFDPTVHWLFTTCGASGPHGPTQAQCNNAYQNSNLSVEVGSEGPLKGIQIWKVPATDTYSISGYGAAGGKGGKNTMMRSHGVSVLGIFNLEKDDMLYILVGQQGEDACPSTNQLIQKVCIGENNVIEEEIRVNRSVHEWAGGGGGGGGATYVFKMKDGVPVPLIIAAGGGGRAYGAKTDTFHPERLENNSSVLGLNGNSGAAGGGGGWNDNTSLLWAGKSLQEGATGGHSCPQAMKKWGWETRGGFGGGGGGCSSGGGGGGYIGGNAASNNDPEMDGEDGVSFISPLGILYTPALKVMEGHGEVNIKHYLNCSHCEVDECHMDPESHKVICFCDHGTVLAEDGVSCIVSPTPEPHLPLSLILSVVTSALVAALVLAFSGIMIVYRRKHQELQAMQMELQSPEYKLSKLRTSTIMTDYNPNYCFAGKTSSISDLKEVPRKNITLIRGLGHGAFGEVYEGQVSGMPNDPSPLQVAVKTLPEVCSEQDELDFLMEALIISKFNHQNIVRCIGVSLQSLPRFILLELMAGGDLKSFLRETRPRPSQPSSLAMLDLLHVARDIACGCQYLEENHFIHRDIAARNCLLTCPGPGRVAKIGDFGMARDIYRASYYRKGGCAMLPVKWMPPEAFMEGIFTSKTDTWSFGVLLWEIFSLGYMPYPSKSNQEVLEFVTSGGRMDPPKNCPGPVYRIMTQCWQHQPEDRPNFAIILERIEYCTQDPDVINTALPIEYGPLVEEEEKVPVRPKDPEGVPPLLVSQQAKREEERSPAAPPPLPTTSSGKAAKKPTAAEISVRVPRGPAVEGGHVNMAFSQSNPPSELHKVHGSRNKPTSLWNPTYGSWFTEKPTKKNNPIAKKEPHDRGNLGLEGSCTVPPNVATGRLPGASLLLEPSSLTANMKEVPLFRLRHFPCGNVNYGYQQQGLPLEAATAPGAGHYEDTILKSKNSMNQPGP

SMILES	IC50 (H3122 cells; [1]) [µM]	IC50 (ALK; Table 2) [µM]	IC50 (JAK2; Table 2, read-out: JAK2 IC50) [µM]	IC50 (HEL (JAK2 V617F) cells) [µM]	IC50 (SET 2 (JAK2 V617F) cells; SET-2) [µM]	IC50 (H3122 cells; [2]) [µM]	IC50 (HEL (JAK2 V617F) cells; 72 h) [µM]	IC50 (SET 2 (JAK2 V617F) cells; SET-2, 72 h) [µM]	IC50 (JAK2; [3]) [µM]	IC50 (H3122 cells; [4]) [µM]	IC50 (ALK; [4]) [µM]	IC50 (H3122 cells; [5]) [µM]
CC(Oc1cc(Nc2cc3ccccc3cn2)cnc1N)c1cc(F)ccc1Cl (centres unmarked) [MXY-032-69]	25.3 ± 6.24	> 10	> 5	10.7	> 50	–	–	–	–	–	–	–
C[C@@H](Oc1cc(-c2cnn(C3CCNCC3)c2)cnc1N)c1c(Cl)ccc(F)c1Cl [Crizotinib, reference compound]	–	–	–	–	–	0.842 ± 0.056	7.3	0.47	–	–	–	–
CC(Oc1cc(-c2cn(C)cn2)cnc1N)c1cc(F)ccc1Cl (centres unmarked) [XFL-171]	11.9 ± 0.31	> 10	1.84 ± 0.025	13.5	4.47	–	–	–	–	–	–	–
COc1ncc(F)cc1C(C)Oc1cc(-c2cnn(C3CCNCC3)c2)cnc1N (centres unmarked) [MXY-111]	0.988 ± 0.047	0.132	–	12.4	2.48	–	–	–	–	–	–	–
CCC(Oc1cc(-c2cnn(C3CCNCC3)c2)cnc1N)c1c(Cl)ccc(F)c1Cl (centres unmarked) [WWQ-1093-13, 4-{3-[1-(2,6-dichloro-3-fluorophenyl)propoxy]-2-aminopyridine}pyrazol-1-piperidine]	3.537 ± 0.034	3.56	0.1 ± 0.002	37.3	7.86	–	–	–	0.1 ± 0.002	–	–	–
CC(Oc1cc(-c2cnn(C3CCOCC3)c2)cnc1N)c1cc(F)ccc1Cl (single isomer, unassigned) [Configuration 2]	–	–	–	–	–	–	–	–	–	> 100	> 10	–
CC(Oc1cc(-c2cnn(C3CCNCC3)c2)cnc1N)c1c(Cl)cccc1Cl (centres unmarked) [WWQ-133, 4-{3-[1-(2,6-dichlorophenyl)ethoxy]-2-aminopyridine}pyrazol-1-piperidine]	> 10	0.511	0.442 ± 0.003	15	0.879	–	–	–	0.442 ± 0.003	–	–	–
CC(Oc1cc(-c2cnn(C)c2)cnc1N)c1cc(F)ccc1Cl (centres unmarked) [XFL-111]	3.52 ± 0.605	0.201	0.024 ± 0.002	9.05	7.56	–	–	–	–	–	–	–
CC(Oc1cc(-c2cnn(C3CCOCC3)c2)cnc1N)c1cc(F)ccc1Cl (centres unmarked) [MXY-193]	–	> 10	–	–	–	78.8 ± 2.27	–	–	–	–	> 10	78.8 ± 2.27
CC(Oc1cc(-c2cnn(C3CCOCC3)c2)cnc1N)c1cc(F)ccc1Cl (single isomer, unassigned) [Configuration 1]	–	–	–	–	–	–	–	–	–	–	6.5	56.7
CC(Oc1cc(-c2cc3ccccc3[nH]2)cnc1N)c1cc(F)ccc1Cl (centres unmarked) [MXY-141]	> 100	> 10	–	12.2	13.2	–	–	–	–	–	–	–
CC(Oc1cc(-c2cccc(N3CCOCC3)c2)cnc1N)c1cc(F)ccc1Cl (centres unmarked) [MXY-032-55]	11.6 ± 6.02	3.89	0.528 ± 0.008	5.99	18.6	–	–	–	–	–	–	–
CC(Oc1cc(-c2c[nH]c3ccccc23)cnc1N)c1cc(F)ccc1Cl (centres unmarked) [MXY-137]	50.6 ± 8.01	5.5	0.925 ± 0.102	1.67	12.5	–	–	–	–	–	–	–
CC(Oc1cc(Nc2nccc3ccccc23)cnc1N)c1cc(F)ccc1Cl (centres unmarked) [MXY-032-87]	17.4 ± 0.25	> 10	> 10	9.47	> 50	–	–	–	–	–	–	–
CC(Oc1cc(Nc2ccccc2)cnc1N)c1cc(F)ccc1Cl (centres unmarked) [MXY-171]	17.57 ± 0.161	> 10	3.35 ± 0.063	2.11	2.14	–	–	–	–	–	–	–
CC(Oc1cc(-c2cnn(C3CCNCC3)c2)cnc1N)c1cc(F)ccc1Cl (centres unmarked) [WWQ-131, 4-{3-[1-(2-chloro-5-fluorophenyl)ethoxy]-2-aminopyridine}pyrazol-1-piperidine]	–	0.089	–	–	–	1.591 ± 0.014	9.78	1.33	0.0067 ± 0.001	–	–	–

Reference: patent US20210179598A1, “SELECTIVE JAK2 INHIBITOR AND APPLICATION THEREOF” (EAST CHINA UNIVERSITY OF SCIENCE AND TECHNOLOGY, priority 2018, published 2021)
